# Results: patent US20080167532A1, “ASSESSING CANCER TREATMENT RESPONSIVENESS” (Mayo Foundation for Medical Education and Research, priority 2006, published 2008)
# “Also recorded” adds a separate entry of the source.
# Experiments:
# DRO cells [1] = test: Western blot of RhoB, RhoA, p21, cyclin E polypeptides in DRO cells; format: cell-based, human
# Experimental: RhoB and p21^WAF1/CIP1 polypeptide expression also was examined in ATC cells to determine the time course of induction of each polypeptide following stimulation with a PPARγ agonist (FIG. 6). […]. Polypeptide lysates were prepared and examined for RhoB, RhoA and β-actin expression. […]; FIG. 6A).
# The time course for induction of RhoB and p21^WAF1/CIP1 was determined using Western blotting.
# (§1) DRO90-1 (DRO) and ARO81 (ARO) cells were derived from primary cultures of human anaplastic thyroid carcinoma tumors that were obtained from Dr. G. J. Juillard (University of California-Los Angeles, Los Angeles, Calif.), and KTC-2 and KTC3 cells were obtained from Dr. Junichi Kurebayashi (Podtcheko et al., J. Clin. Endocrinol. Metab., 88:1889-1896 (2003) and Pushkarev et al., Molecular mechanisms of the Effects of Low Concentrations of Taxol in Anaplastic Thyroid Cancer Cells. Endocrinology: en. 2004-0127 (2004)). Cells were cultured in RPMI 1640 medium (Cellgro, Herndon Va.) supplemented with 10% charcoal-stripped fetal bovine serum (Hyclone), non-essential amino acids, sodium pyruvate, and penicillin-streptomycin-amphotericin B at 37° C. in a humidified atmosphere with 5% CO^2. Charcoal-stripped serum was used to exclude endogenous PPAR ligands contained in serum. For proliferation studies, cells were plated in triplicate in 12-well culture plates at initial concentrations of 2×10^4 cells/well. After overnight incubation, cells were treated with 10 nM RS5444 or DMSO diluent (Sigma) for 6 days with medium, and drug changed every 48 hours. After 6 days, cells were washed with PBS (Cellgro), trypsinized, and counted by Beckman Coulter Counter (Beckman Instruments, Fullerton Calif.). For morphology studies, cells were plated in 12 well plates at initial concentrations of 2.5×10^4 cells/well. Cells were treated with either DMSO or 10 nM RS5444 (24 hours). After treatment, phase images were obtained on an inverted microscope. For real time PCR studies, cells were plated in 60 mm plates at 50% confluence and treated with 10 nM RS5444 for indicated incubation periods. […].
# Cells were collected and lysed in RIPA buffer containing 50 mM Tris, 5 mM EDTA, 150 mM NaCl, 0.1% SDS, 0.5% Deoxycholate, 1% NP40, and protease inhibitor cocktail (Roche) followed by centrifugation. Excised tumor tissues were lysed in 50 mM Tris pH 8.0+1% SDS. Collected supernatants were, analyzed for protein concentration using Pierce's BCA assay, with 25 μg protein loaded per gel lane (Invitrogen) with later transfer to Immobilon-P membranes. The membranes were hybridized with antibodies (Santa Cruz, Cell Signaling, Sigma-Aldrich, St. Louis Mo.) as indicated overnight at 4° C. followed by treatment with species-specific horseradish peroxidase IgG (Jackson labs) for 45 minutes at room temperature. Detection was performed using Supersignal West Pico chemoluminescence kit (Pierce). Quantification of bands was performed in triplicate using Image Quant 5.2 (Molecular Dynamics, Sunnyvale Calif.).
# DRO cells [2] = test: DRO cell proliferation (cell counts over six days); format: cell-based, human; conditions: DRO cells treated every 48 hours over six days; read-out: IC50, concentration at which 50% of cell proliferation was inhibited
# Experimental: . Cells were treated every 48 hours over six days. Cell numbers were counted and data were plotted as mean values ±S.D. The thiazolidinediones inhibited cell proliferation of DRO cells in a dose responsive fashion (FIG. 3B). […]. The EC50 concentrations were in close agreement with the IC50 concentrations for each compound (FIG. 3B).
# . […] Cell numbers were counted and data were plotted as mean values ±S.D. (FIG. 9D).
# as §1, with “[…].” for “For morphology studies, cells were plated in 12 well plates at initial concentrations of 2.5×10^4 cells/well.”
# Cells were either plated in triplicate at 7.5×10^4 cells/mL in 6-well plates or 2×10^4 cells/well in 12-well plates, allowed to adhere overnight, and then transfected for 24 to 72 hours with 2 to 5 μg of either scrambled, p21^WAF1/CIP1 (1022539), RhoB (SI00058933) or PPAR-γ-specific siRNA duplexes (Qiagen Valencia, Calif.) using RNAiFect reagent (Qiagen). The DNA target sequence for PPAR-γ was 5′-[…]-3′. After transfection, cells in the 6-well plates were treated with either DMSO diluent or 10 nM RS5444 for 24 hours and then analyzed by either real time PCR or immunoblotting. Cells in the 12-well plates were exposed for 6 days with medium, and drug changed every 48 hours. After 6 days, cells were washed with PBS (Cellgro), trypsinized, and counted by Beckman Coulter Counter.
smiles,measurement,setting,value
Cc1cc(Oc2ccc3nc(COc4ccc(CC5SC(=O)NC5=O)cc4)n(C)c3c2)cc(C)c1N (stereo not shown) [RS5444],RhoA polypeptide expression (Western blot),DRO cells [1]; 10 nM RS5444,no change in RhoA polypeptide expression; also recorded: no change in RhoA polypeptide levels
same,Cyclin E levels (Western blot),"DRO cells [1]; 10 nM, at 24 hours, not at earlier time points",down-regulated
same,"RhoB polypeptide level, time course (Western blot)","DRO cells [1]; 10 nM, up to 24 hours",significantly elevated at 6 hours
same,"p21WAF1/CIP1 polypeptide level, time course (Western blot)","DRO cells [1]; 10 nM, up to 24 hours",significantly elevated at 6 hours
same,RhoB polypeptide levels (Western blot),"DRO cells [1]; 24 hours after single treatment, 10 nM RS5444, 100 nM rosiglitazone, 1 μM troglitazone",induced most strongly; also recorded: induced RhoB polypeptide levels
same,RhoB and p21 expression (Western blot),"DRO cells [1]; 24 hours, 10 nM RS5444, 1 ng/mL FK-228, 10 μM FTI-277",upregulation of both RhoB and p21 expression
same,IC50,DRO cells [2],~0.8 nM
